In ChEMBL document CHEMBL1201862, “PubChem BioAssay data set” (2004):
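Values below derive from 48-hour exposures of cells grown in 96-well plates, with endpoints linearly interpolated between the two concentrations bracketing the appropriate inhibition level. The concentration for 50% growth inhibition is given as GI50.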 Calls of active or inactive are those of the source. Rule as the data show it: active = GI50 up to about 1.1 µM and inactive = higher.

Columns and labels:
Test in all cases: inhibition of tumour cell growth, NCI panel, 48 h
[1] = system: CCRF-CEM
[2] = system: SN12C
[3] = system: M14
[4] = system: NCI-H460
[5] = system: SNB-75
[6] = system: SNB-19
[7] = system: LOX IMVI
[8] = system: ACHN
[9] = system: SK-MEL-2
[10] = system: HOP-92
[11] = system: SK-MEL-5
[12] = system: NCI-H522
[13] = system: SR
[14] = system: U-251
[15] = system: COLO 205
[16] = system: K562

Row | SMILES | GI50 [1] | GI50 [2] | GI50 [3] | GI50 [4] | GI50 [5] | GI50 [6] | GI50 [7] | GI50 [8] | GI50 [9] | GI50 [10] | GI50 [11] | GI50 [12] | GI50 [13] | GI50 [14] | GI50 [15] | GI50 [16]
1 | COc1cc(C2c3cc4c(cc3[C@@H](Nc3ccc(C(=O)O)cc3)C3COC(=O)[C@H]23)OCO4)cc(OC)c1O (stereo partly drawn) | 2.78 µM (inactive) | 31.7 µM (inactive) | 20.7 µM (inactive) | 2.39 µM (inactive) | 13.2 µM (inactive) | 6.14 µM (inactive) | 4.41 µM (inactive) | 31.6 µM (inactive) | 30.4 µM (inactive) | 2.46 µM (inactive) | 12.1 µM (inactive) | – | – | – | – | –
2 | O=C(/C=C/C1C(=O)NC(=O)NC1=O)CC(=O)C(=O)Nc1cc(Cl)c(Cl)cc1Cl | > 100 µM (inactive) | > 100 µM (inactive) | > 100 µM (inactive) | > 100 µM (inactive) | > 100 µM (inactive) | > 100 µM (inactive) | > 100 µM (inactive) | > 100 µM (inactive) | > 100 µM (inactive) | – | > 100 µM (inactive) | > 100 µM (inactive) | > 100 µM (inactive) | > 100 µM (inactive) | > 100 µM (inactive) | > 100 µM (inactive)
3 | C=CCC12CC(=O)CCC1CC(=O)C2 (stereo not drawn) | > 100 µM (inactive) | > 100 µM (inactive) | > 100 µM (inactive) | > 100 µM (inactive) | > 100 µM (inactive) | > 100 µM (inactive) | – | > 100 µM (inactive) | > 100 µM (inactive) | – | > 100 µM (inactive) | > 100 µM (inactive) | > 100 µM (inactive) | > 100 µM (inactive) | > 100 µM (inactive) | > 100 µM (inactive)
4 | CN1C(=O)CN2C(Cl)(Cl)C2(c2ccccc2F)c2cc([N+](=O)[O-])ccc21 (stereo not drawn) | 29 µM (inactive) | 25.2 µM (inactive) | > 100 µM (inactive) | 33.2 µM (inactive) | 17.5 µM (inactive) | – | 35.7 µM (inactive) | 41.5 µM (inactive) | 38.2 µM (inactive) | 19.3 µM (inactive) | 26.8 µM (inactive) | > 100 µM (inactive) | 33 µM (inactive) | 57.1 µM (inactive) | 52.1 µM (inactive) | 36.8 µM (inactive)
5 | CON(C)C(=O)CCCO | > 100 µM (inactive) | > 100 µM (inactive) | > 100 µM (inactive) | > 100 µM (inactive) | > 100 µM (inactive) | > 100 µM (inactive) | – | > 100 µM (inactive) | > 100 µM (inactive) | > 100 µM (inactive) | > 100 µM (inactive) | > 100 µM (inactive) | > 100 µM (inactive) | > 100 µM (inactive) | > 100 µM (inactive) | > 100 µM (inactive)
6 | CC1(O)C=CC2CCC1C2O (stereo not drawn) | > 100 µM (inactive) | > 100 µM (inactive) | > 100 µM (inactive) | 46.5 µM (inactive) | > 100 µM (inactive) | > 100 µM (inactive) | 21.5 µM (inactive) | > 100 µM (inactive) | > 100 µM (inactive) | – | > 100 µM (inactive) | > 100 µM (inactive) | 23.7 µM (inactive) | > 100 µM (inactive) | 30.3 µM (inactive) | > 100 µM (inactive)
7 | CC(C)N(C(=O)C12C3C4C1C1C4(C#N)C3C12C#N)C(C)C (stereo not drawn) | > 100 µM (inactive) | > 100 µM (inactive) | > 100 µM (inactive) | > 100 µM (inactive) | – | > 100 µM (inactive) | – | > 100 µM (inactive) | – | > 100 µM (inactive) | > 100 µM (inactive) | – | – | > 100 µM (inactive) | > 100 µM (inactive) | > 100 µM (inactive)
8 | O=C(O)CNS(=O)(=O)c1ccc(NC(=O)c2ccc([N+](=O)[O-])cc2)cc1 | > 100 µM (inactive) | > 100 µM (inactive) | > 100 µM (inactive) | > 100 µM (inactive) | > 100 µM (inactive) | > 100 µM (inactive) | > 100 µM (inactive) | > 100 µM (inactive) | > 100 µM (inactive) | > 100 µM (inactive) | > 100 µM (inactive) | 79.6 µM (inactive) | – | > 100 µM (inactive) | > 100 µM (inactive) | > 100 µM (inactive)
9 | O=[N+]([O-])c1ccc(C2SCc3nc4ccccc4n32)cc1 (stereo not drawn) | 65.9 µM (inactive) | 56.1 µM (inactive) | – | > 100 µM (inactive) | – | > 100 µM (inactive) | 74.1 µM (inactive) | 47.8 µM (inactive) | 60.1 µM (inactive) | 23.1 µM (inactive) | 17.4 µM (inactive) | – | 53.6 µM (inactive) | 93.8 µM (inactive) | > 100 µM (inactive) | 33.4 µM (inactive)
10 | C[C@@H]1CC2(C[C@@H](C)C3[C@@H](CC4(C)CCCC5C6=CC(O)(CC[C@]34C)OC6=CC(=O)OC5(C)C)O2)OC1=O (stereo partly drawn) | – | > 100 µM (inactive) | > 100 µM (inactive) | – | 96.2 µM (inactive) | > 100 µM (inactive) | > 100 µM (inactive) | > 100 µM (inactive) | > 100 µM (inactive) | > 100 µM (inactive) | > 100 µM (inactive) | > 100 µM (inactive) | > 100 µM (inactive) | > 100 µM (inactive) | > 100 µM (inactive) | 84.3 µM (inactive)
11 | OCC1O[C@H](O[C@@H]2CCCN3CC(O)C(O)[C@@H]23)C(O)C(O)C1O (stereo partly drawn) | > 100 µM (inactive) | > 100 µM (inactive) | > 100 µM (inactive) | – | > 100 µM (inactive) | – | – | > 100 µM (inactive) | > 100 µM (inactive) | > 100 µM (inactive) | > 100 µM (inactive) | > 100 µM (inactive) | > 100 µM (inactive) | > 100 µM (inactive) | > 100 µM (inactive) | > 100 µM (inactive)
12 | C[C@H](NC(=O)OC1C2C=CC(O)C1CC2)c1ccccc1 (stereo partly drawn) | 81.1 µM (inactive) | > 100 µM (inactive) | 31.1 µM (inactive) | 80 µM (inactive) | > 100 µM (inactive) | > 100 µM (inactive) | > 100 µM (inactive) | > 100 µM (inactive) | > 100 µM (inactive) | – | > 100 µM (inactive) | > 100 µM (inactive) | 21.4 µM (inactive) | > 100 µM (inactive) | 40.9 µM (inactive) | > 100 µM (inactive)
13 | O=NN(CCCl)C(=O)N[C@H]1CC[C@@H](CC(=O)O)CC1 | 28.6 µM (inactive) | > 100 µM (inactive) | – | 55.2 µM (inactive) | > 81.1 µM (inactive) | 99.3 µM (inactive) | > 54.2 µM (inactive) | – | > 100 µM (inactive) | > 84.9 µM (inactive) | > 100 µM (inactive) | > 61.7 µM (inactive) | – | 74 µM (inactive) | > 100 µM (inactive) | > 100 µM (inactive)
14 | COc1ccc(C2S/C(=C\c3ccc(O)cc3)C(=O)N2NC(=O)Cc2ccccc2)cc1 (stereo not drawn) | > 100 µM (inactive) | > 100 µM (inactive) | > 100 µM (inactive) | > 100 µM (inactive) | 90.8 µM (inactive) | – | > 100 µM (inactive) | > 100 µM (inactive) | > 100 µM (inactive) | > 100 µM (inactive) | > 100 µM (inactive) | > 100 µM (inactive) | > 100 µM (inactive) | > 100 µM (inactive) | > 100 µM (inactive) | > 100 µM (inactive)
15 | CCN1C(C)=NC2C(=O)c3ccccc3C(=O)C21 (stereo not drawn) | 47 µM (inactive) | 40.8 µM (inactive) | 66.5 µM (inactive) | 30.1 µM (inactive) | 37.8 µM (inactive) | 81.7 µM (inactive) | 46.9 µM (inactive) | 74.8 µM (inactive) | > 100 µM (inactive) | – | 24.1 µM (inactive) | – | 52.5 µM (inactive) | > 100 µM (inactive) | 33.5 µM (inactive) | 78.9 µM (inactive)
16 | CC(=O)N/C(=C\c1ccccc1/C=C(\NC(C)=O)c1nc2cc(C)c(C)cc2[nH]1)c1nc2cc(C)c(C)cc2[nH]1 | 26.7 µM (inactive) | 17.1 µM (inactive) | 9.84 µM (inactive) | 26.8 µM (inactive) | 13.7 µM (inactive) | 6.81 µM (inactive) | – | 14.8 µM (inactive) | 22.1 µM (inactive) | 8.36 µM (inactive) | 17.1 µM (inactive) | 1.73 µM (inactive) | 0.689 µM (active) | 6.59 µM (inactive) | 19.5 µM (inactive) | 28.6 µM (inactive)
17 | O=C(c1ccccc1)c1ccc2cccc(OC3OC(CO)C(O)C(O)C3O)c2n1 (stereo not drawn) | – | > 100 µM (inactive) | > 100 µM (inactive) | 74.6 µM (inactive) | 68.4 µM (inactive) | > 100 µM (inactive) | > 100 µM (inactive) | > 100 µM (inactive) | > 100 µM (inactive) | – | > 100 µM (inactive) | > 100 µM (inactive) | > 100 µM (inactive) | > 100 µM (inactive) | > 100 µM (inactive) | > 100 µM (inactive)
18 | CC(/C=C/c1ncccc1OCCCCCC(=O)O)=N\NC1=NCCN1 | > 100 µM (inactive) | > 100 µM (inactive) | > 100 µM (inactive) | > 100 µM (inactive) | – | > 100 µM (inactive) | > 100 µM (inactive) | > 100 µM (inactive) | > 100 µM (inactive) | > 100 µM (inactive) | – | > 100 µM (inactive) | > 100 µM (inactive) | – | > 100 µM (inactive) | > 100 µM (inactive)
19 | CCOC(=O)C1=C(C)N(NC(=O)OC)C2(N)N(NC(=O)OC)C(C)=C(C(=O)OCC)C12C#N (stereo not drawn) | – | > 100 µM (inactive) | > 100 µM (inactive) | > 100 µM (inactive) | > 100 µM (inactive) | > 100 µM (inactive) | > 100 µM (inactive) | > 100 µM (inactive) | > 100 µM (inactive) | – | > 100 µM (inactive) | > 100 µM (inactive) | > 100 µM (inactive) | > 100 µM (inactive) | – | > 100 µM (inactive)
